Columns and labels:
IRF3-BiLC = assay: Effect of CHX on IRF3-BiLC in THP-1 (IRF3-BiLC) cells; assay type: cell-based, human; details: CHX 100 ng/mL for 10 h, with or without polydA:dT stimulation; normalized to untreated groups; FIG. 5
Procedure: (§1) THP-1-Dual and THP-1 (IRF3-BiLC) cells were plated at a concentration of 1000,000 cells per mL in a 24-well plate. 4 groups were arranged for THP-1-Dual and THP-1 cells respectively, resulting in a total of 8 groups. After 12 hours, for THP-1-Dual cells, two groups of cells were transfected with Lipo2000 and stimulated with […] of polydA:dT, and the other two groups were not treated. The same treatment was performed for THP-1 (IRF3-BiLC). 4 hours after transfection, for the 2 groups of THP-1-Dual cells that were transfected and stimulated with polydA:dT, CHX with a final concentration of 100 ng/mL was added into one group. For the 2 groups of THP-1-Dual cells that were not treated, CHX with a final concentration of 100 ng/mL was added into one group. The other two groups were not treated. The same treatment was performed for THP-1 (IRF3-BiLC).
(§2) After 10 h of CHX treatment, for THP-1-Dual cells, 40 μL of supernatant was taken respectively to detect the luciferase activity. For THP-1 (IRF3-BiLC), 80 μL of Renilla luciferase lysate (purchased from Promega, E2820) was used to lyse on ice for 10 min. […] 20 μL of Renilla luciferase substrate (purchased from Promega, E2820) was added into each well, and the luciferase activity was detected by a microplate reader (purchased from Bio-Tek, Synergy H1).
(§3) The detected values of luciferase were normalized with regard to the untreated groups.

ISRE-Luc = assay: Effect of CHX on ISRE-Luc in THP-1-Dual cells; assay type: cell-based; details: CHX 100 ng/mL for 10 h, with or without polydA:dT stimulation; normalized to untreated groups; FIG. 6
Procedure: as §1, §2, §3

IRF3 dimers = assay: IRF3 dimer luciferase signal in THP-1 (IRF3-BiLC) under different stimulations; assay type: cell-based, human; details: FIG. 2a
IRF5 dimers = assay: IRF5 dimer luciferase signal in THP-1 (IRF5-BiLC) under different stimulations; assay type: cell-based, human; details: FIG. 2b
IRF7 dimers = assay: IRF7 dimer luciferase signal in THP-1 (IRF7-BiLC) under different stimulations; assay type: cell-based, human; details: FIG. 2c

Row | Molecule | effect of CHX on IRF3-BiLC luciferase activity (IRF3-BiLC) | effect of CHX on ISRE-Luc luciferase activity (ISRE-Luc) | signals of the IRF3 dimers (luciferase activity) (IRF3 dimers) | signals of the IRF5 dimers (luciferase activity) (IRF5 dimers) | signals of the IRF7 dimers (luciferase activity) (IRF7 dimers)
1 | C[C@@H]1C[C@@H]([C@H](O)CC2CC(=O)NC(=O)C2)C(=O)[C@@H](C)C1 [CHX] | capable of reflecting the intracellular type I interferon response reaction | affected significantly | – | – | –
2 | IL-1B: stimulus used on the THP-1 BiLC reporter cell lines | – | – | cannot cause the formation of the signals | cannot cause the formation of the signals | cannot cause the formation of the signals
3 | TNFa | – | – | cannot cause the formation of the signals | cannot cause the formation of the signals | cannot cause the formation of the signals
